Test results: ChEMBL document CHEMBL2016574, “Substituted aminopyrimidine protein kinase B (PknB) inhibitors show activity against Mycobacterium tuberculosis” (Bioorg Med Chem Lett, 2012)
Calls of active or inactive are those of the source. The rule behind the calls is not given here.

Assays:
[1] = target: T1, Serine/threonine-protein kinase PknF (Mycobacterium tuberculosis) (UniProt P9WI75); assay: Inhibition of Mycobacterium tuberculosis PknF
T1 sequence (whole entry): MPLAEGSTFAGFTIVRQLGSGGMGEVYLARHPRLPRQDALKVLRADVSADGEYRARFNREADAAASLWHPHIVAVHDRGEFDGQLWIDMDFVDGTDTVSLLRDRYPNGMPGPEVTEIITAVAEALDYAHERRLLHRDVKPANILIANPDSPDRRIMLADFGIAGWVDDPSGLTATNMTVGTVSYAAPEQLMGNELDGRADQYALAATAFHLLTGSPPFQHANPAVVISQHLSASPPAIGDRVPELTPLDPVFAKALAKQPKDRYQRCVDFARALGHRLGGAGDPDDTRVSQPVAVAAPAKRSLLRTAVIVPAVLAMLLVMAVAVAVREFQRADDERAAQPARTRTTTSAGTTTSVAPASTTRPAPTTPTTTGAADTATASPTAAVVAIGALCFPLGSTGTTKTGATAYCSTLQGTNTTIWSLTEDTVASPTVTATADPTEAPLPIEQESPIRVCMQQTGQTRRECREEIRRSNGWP

[2] = target: Serine/threonine-protein kinase PknG (Mycobacterium tuberculosis) (UniProt P9WI73); assay: Inhibition of Mycobacterium tuberculosis PknG
Serine/threonine-protein kinase PknG (Mycobacterium tuberculosis), sequence (P9WI73 whole entry): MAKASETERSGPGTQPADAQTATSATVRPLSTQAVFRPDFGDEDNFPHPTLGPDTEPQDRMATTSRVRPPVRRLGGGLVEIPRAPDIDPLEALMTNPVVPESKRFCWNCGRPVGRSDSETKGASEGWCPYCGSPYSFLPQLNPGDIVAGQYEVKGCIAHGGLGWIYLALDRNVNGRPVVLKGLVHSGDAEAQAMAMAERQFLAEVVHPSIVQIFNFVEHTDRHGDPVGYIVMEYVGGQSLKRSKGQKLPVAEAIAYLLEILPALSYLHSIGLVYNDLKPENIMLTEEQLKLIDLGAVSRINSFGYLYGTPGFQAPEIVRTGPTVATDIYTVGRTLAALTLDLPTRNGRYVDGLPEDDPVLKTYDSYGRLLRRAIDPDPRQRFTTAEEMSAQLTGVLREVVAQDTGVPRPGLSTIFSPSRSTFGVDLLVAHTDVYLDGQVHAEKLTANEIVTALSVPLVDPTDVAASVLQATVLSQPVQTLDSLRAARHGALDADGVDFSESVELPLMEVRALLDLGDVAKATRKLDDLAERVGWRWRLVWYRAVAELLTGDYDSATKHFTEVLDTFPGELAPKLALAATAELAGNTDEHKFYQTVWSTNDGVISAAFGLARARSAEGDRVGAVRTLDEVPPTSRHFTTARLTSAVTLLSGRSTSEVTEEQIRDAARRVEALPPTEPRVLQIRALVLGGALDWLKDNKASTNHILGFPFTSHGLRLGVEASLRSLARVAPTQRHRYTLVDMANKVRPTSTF

[3] = Protein binding in plasma; format: ADME, cell-free; settings: read-out: PPB

| SMILES | inhibition [1] | inhibition [2] | fraction unbound [3] |
| --- | --- | --- | --- |
| Fc1ccc(-c2nc(Nc3cc(C4CC4)[nH]n3)c3ccccc3n2)cc1 | Active | Active | – |
| CN1CCC(CNc2cc(Nc3cc(C4CC4)[nH]n3)nc(-c3cccc(C#N)c3)n2)CC1 | Active | Active | – |
| CN(C)CCNc1cc(Nc2cc(C3CC3)[nH]n2)nc(-c2cccc(C#N)c2)n1 | Active | Active | – |
| c1ccc(-c2nc(Nc3cc(C4CC4)[nH]n3)c3ccccc3n2)cc1 | Active | Active | – |
| CN(C)[C@@H]1CCN(c2cc(Nc3ccccn3)nc(-c3cccc(C#N)c3)n2)C1 | Active | Active | – |
| Fc1ccc(-c2nc(Nc3cc(C4CC4)n[nH]3)c3ccccc3n2)cc1 | – | – | < 0.01 |
| Fc1ccc(-c2nccc(Nc3cc(C4CC4)[nH]n3)n2)cc1 | Active | Active | – |
| c1ccc2c(Nc3cc(C4CC4)[nH]n3)nc(NCC3CC3)nc2c1 | Active | Active | – |
| c1cc(Nc2cc(C3CC3)[nH]n2)nc(NC2CCCC2)n1 | Active | Active | – |
| Clc1ccccc1CCNc1nccc(Nc2cc(C3CC3)[nH]n2)n1 | Active | Active | – |
| CC(C)CCNc1nccc(Nc2cc(C3CC3)[nH]n2)n1 | Active | Active | – |
| NC(=O)c1cccc(-c2nccc(Nc3cc(C4CC4)[nH]n3)n2)c1 | Active | Active | – |
| CN1CCN(c2cc(Nc3cc(C4CC4)[nH]n3)nc(-c3ccccc3)n2)CC1 | Active | Active | – |
| c1ccc2c(Nc3cc(C4CC4)[nH]n3)nc(NC3CCCCC3)nc2c1 | Active | Active | < 0.01 |
| c1ccc2c(Nc3cc(C4CC4)n[nH]3)nc(NCC3CC3)nc2c1 | – | – | < 0.01 |
| CN1CCC(Nc2cc(Nc3cc(C4CC4)[nH]n3)nc(-c3ccccc3)n2)CC1 | Active | Active | – |
| CN1CCC(CNc2cc(Nc3cc(C4CC4)[nH]n3)nc(-c3cccc(S(C)(=O)=O)c3)n2)CC1 | Active | Active | – |
| c1ccc2c(Nc3cc(C4CC4)n[nH]3)nc(-c3ccncc3)nc2c1 | – | – | < 0.01 |
| c1ccc(-c2nc(Nc3cc(C4CC4)n[nH]3)c3ccccc3n2)cc1 | – | – | < 0.01 |
| c1ccc(-c2nc(Nc3cc(C4CC4)[nH]n3)cc(OCCN3CCCC3)n2)cc1 | Active | Active | – |

| SMILES | inhibition [1] | inhibition [2] | fraction unbound [3] |
| --- | --- | --- | --- |
| Fc1ccc(-c2nc(Nc3cc[nH]n3)c3ccccc3n2)cc1 | Active | Active | < 0.01 |
| c1ccc2c(Nc3cc(C4CC4)[nH]n3)nc(-c3ccncc3)nc2c1 | Active | Active | – |
| Cc1cc(Nc2nc(-c3ccncc3)nc3ccccc23)n[nH]1 | Active | Active | – |
| CS(=O)(=O)NCc1ccc(-c2nccc(Nc3cc(C4CC4)[nH]n3)n2)cc1 | Active | Active | – |
| c1ccc(CNc2nccc(Nc3cc(C4CC4)[nH]n3)n2)cc1 | Active | Active | – |
| CN(C)[C@@H]1CCN(c2cc(Nc3cc(C(F)(F)F)ccn3)nc(-c3cccc(C#N)c3)n2)C1 | Active | Active | – |
| CN(C)CCNc1cc(Nc2cc(C3CC3)[nH]n2)nc(-c2ccccc2)n1 | Active | Active | – |
| CN1CCC(CNc2cc(Nc3cc(C4CC4)[nH]n3)nc(-c3ccccc3)n2)CC1 | Active | Active | – |
| Cc1cc(Nc2nc(-c3ccc(F)cc3)nc3ccccc23)n[nH]1 | Active | Active | < 0.01 |
| CS(=O)(=O)c1cccc(-c2nccc(Nc3cc(C4CC4)[nH]n3)n2)c1 | Active | Active | – |
| CN(C)[C@@H]1CCN(c2cc(Nc3cc(Cl)ccn3)nc(-c3ccccc3)n2)C1 | Active | Active | – |
| c1cc(Nc2cc(C3CC3)[nH]n2)nc(NC2CCCCC2)n1 | Active | Active | – |
| CS(=O)(=O)Nc1cccc(-c2nccc(Nc3cc(C4CC4)[nH]n3)n2)c1 | Active | Active | – |
| Fc1cccc(CCNc2nccc(Nc3cc(C4CC4)[nH]n3)n2)c1 | Active | Active | – |
| c1cc(Nc2cc(C3CC3)[nH]n2)nc(NCC2CC2)n1 | Active | Active | – |
| CN(C)[C@@H]1CCN(c2cc(Nc3cc(C4CC4)[nH]n3)nc(-c3cccc(C#N)c3)n2)C1 | Active | Active | – |
| c1cncc(-c2nccc(Nc3cc(C4CC4)[nH]n3)n2)c1 | Active | Active | – |
| CN(C)[C@@H]1CCN(c2cc(Nc3cc(C4CC4)[nH]n3)nc(-c3ccccc3)n2)C1 | Active | Active | – |
| N#Cc1cccc(-c2nccc(Nc3cc(C4CC4)[nH]n3)n2)c1 | Active | Active | – |
| COc1ccnc(Nc2cc(N3CC[C@@H](N(C)C)C3)nc(-c3ccccc3)n2)c1 | Active | Active | – |
